Values joined by “and” are separate entries in the source; they are usually repeats but may differ in a detail not shown here. Equal entries are not always repeated.
System: 388556-164-R-J1-PDC complex spheroid viability
Test: Anticancer human tumor 388556-164-R-J1-PDC patient-derived colon adenocarcinoma cell line growth inhibition [RAS]
Settings: for viability, T/C: stronger effect = lower value
Method in brief: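 Tumour cells grown as complex spheroids with HUVEC endothelial cells and mesenchymal stem cells, treated with RAS pathway inhibitor combinations. Each agent spans half-log steps from near clinical Cmax, or 10 microM where Cmax is unknown.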
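Further: spheroids exposed to compound for 7 days before readout.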
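Wherever viability, T/C is given: 100% = DMSO vehicle control luminescence.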

Question: How did the IC50 (curve of first compound, second compound 0.000949 µM) turn out when `NC1c2ccccc2OC12CCN(c1cnc3c(N4CCCc5ncccc54)n[nH]c3n1)CC2` (stereo unspecified) + CCn1c(-c2cccnc2C(C)OC)c2c3cc(ccc31)N1CCOC(CC(NC(=O)C(C(C)C)N(C)C(=O)C3(F)CCN(C(=O)C#CC(C)(C)N(C)C)CC3)C(=O)N3CCCC(N3)C(=O)OCC(C)(C)C2)C1 was run?
Answer: 0.192 µM

Question: What about the IC50 (curve of first compound, second compound 0.003 µM) of the same molecule?
Answer: 0.22 µM

Question: What about the IC50 (curve of first compound, second compound 0.00949 µM) of the same molecule?
Answer: 0.239 µM

Question: And the IC50 (curve of first compound, second compound 0.03 µM)?
Answer: 0.129 µM

Question: And the IC50 (curve of first compound, second compound 0.0949 µM)?
Answer: 0.18 µM

Question: What about the IC50 (curve of first compound, second compound 0.3 µM) of the same molecule?
Answer: 0.1 µM

Question: And the viability, T/C (second compound 0.000949 µM, first compound 0.0316 µM)?
Answer: 63.8%

Question: And the viability, T/C (second compound 0.000949 µM, first compound 0.1 µM)?
Answer: 54.9%

Question: And the viability, T/C (second compound 0.000949 µM, first compound 0.316 µM)?
Answer: 46%

Question: And the viability, T/C (second compound 0.000949 µM, first compound 1 µM)?
Answer: 40.4%

Question: What about the viability, T/C (second compound 0.000949 µM, first compound 3.16 µM) of the same molecule?
Answer: 44%

Question: What about the viability, T/C (second compound 0.000949 µM, first compound 10 µM) of the same molecule?
Answer: 35.3%

Question: What about the viability, T/C (second compound 0.003 µM, first compound 0.0316 µM) of the same molecule?
Answer: 70.6%

Question: And the viability, T/C (second compound 0.003 µM, first compound 0.1 µM)?
Answer: 56.3%

Question: What about the viability, T/C (second compound 0.003 µM, first compound 0.316 µM) of the same molecule?
Answer: 49.1%

Question: And the viability, T/C (second compound 0.003 µM, first compound 1 µM)?
Answer: 37.1%

Question: What about the viability, T/C (second compound 0.003 µM, first compound 3.16 µM) of the same molecule?
Answer: 36.2%

Question: And the viability, T/C (second compound 0.003 µM, first compound 10 µM)?
Answer: 33%

Question: And the viability, T/C (second compound 0.00949 µM, first compound 0.0316 µM)?
Answer: 77.8%

Question: What about the viability, T/C (second compound 0.00949 µM, first compound 0.1 µM) of the same molecule?
Answer: 57.9%

Question: And the viability, T/C (second compound 0.00949 µM, first compound 0.316 µM)?
Answer: 47.1%

Question: And the viability, T/C (second compound 0.00949 µM, first compound 1 µM)?
Answer: 41.5%

Question: What about the viability, T/C (second compound 0.00949 µM, first compound 3.16 µM) of the same molecule?
Answer: 42%

Question: What about the viability, T/C (second compound 0.00949 µM, first compound 10 µM) of the same molecule?
Answer: 35.9%

Question: What about the viability, T/C (second compound 0.03 µM, first compound 0.0316 µM) of the same molecule?
Answer: 73.1%

Question: And the viability, T/C (second compound 0.03 µM, first compound 0.1 µM)?
Answer: 50.4%

Question: What about the viability, T/C (second compound 0.03 µM, first compound 0.316 µM) of the same molecule?
Answer: 44.6%

Question: And the viability, T/C (second compound 0.03 µM, first compound 1 µM)?
Answer: 38.5%

Question: What about the viability, T/C (second compound 0.03 µM, first compound 3.16 µM) of the same molecule?
Answer: 37.2%

Question: And the viability, T/C (second compound 0.03 µM, first compound 10 µM)?
Answer: 35.4%

Question: What about the viability, T/C (second compound 0.0949 µM, first compound 0.0316 µM) of the same molecule?
Answer: 66.8%

Question: And the viability, T/C (second compound 0.0949 µM, first compound 0.1 µM)?
Answer: 56.3%

Question: And the viability, T/C (second compound 0.0949 µM, first compound 0.316 µM)?
Answer: 43.5%

Question: What about the viability, T/C (second compound 0.0949 µM, first compound 1 µM) of the same molecule?
Answer: 38.1%

Question: What about the viability, T/C (second compound 0.0949 µM, first compound 3.16 µM) of the same molecule?
Answer: 36.4%

Question: And the viability, T/C (second compound 0.0949 µM, first compound 10 µM)?
Answer: 31.8%

Question: And the viability, T/C (second compound 0.3 µM, first compound 0.0316 µM)?
Answer: 59.7%

Question: And the viability, T/C (second compound 0.3 µM, first compound 0.1 µM)?
Answer: 49.6%

Question: What about the viability, T/C (second compound 0.3 µM, first compound 0.316 µM) of the same molecule?
Answer: 42.8%

Question: And the viability, T/C (second compound 0.3 µM, first compound 1 µM)?
Answer: 35.1%

Question: What about the viability, T/C (second compound 0.3 µM, first compound 3.16 µM) of the same molecule?
Answer: 30.6%

Question: What about the viability, T/C (second compound 0.3 µM, first compound 10 µM) of the same molecule?
Answer: 27.6%

Question: How did the IC50 (curve of first compound, second compound 0.0316 µM) turn out when `C[C@@H](NC(=O)c1ncnc(N)c1Cl)c1ncc(C(=O)Nc2cc(C(F)(F)F)c(Cl)cn2)s1` + C#Cc1c(F)ccc2cc(O)cc(-c3ncc4c(N5CC6CCC(C5)N6)nc(OCC56CCCN5CC(F)C6)nc4c3F)c12 was run?
Answer: > 10 µM

Question: What about the IC50 (curve of first compound, second compound 0.1 µM) of the same molecule?
Answer: > 10 µM

Question: What about the IC50 (curve of first compound, second compound 0.316 µM) of the same molecule?
Answer: > 10 µM

Question: What about the IC50 (curve of first compound, second compound 1 µM) of the same molecule?
Answer: > 10 µM

Question: What about the IC50 (curve of first compound, second compound 3.16 µM) of the same molecule?
Answer: > 10 µM

Question: What about the IC50 (curve of first compound, second compound 10 µM) of the same molecule?
Answer: > 10 µM

Question: And the viability, T/C (second compound 0.0316 µM, first compound 0.0316 µM)?
Answer: 112%

Question: What about the viability, T/C (second compound 0.0316 µM, first compound 0.1 µM) of the same molecule?
Answer: 124%

Question: What about the viability, T/C (second compound 0.0316 µM, first compound 0.316 µM) of the same molecule?
Answer: 117%

Question: And the viability, T/C (second compound 0.0316 µM, first compound 1 µM)?
Answer: 116%

Question: And the viability, T/C (second compound 0.0316 µM, first compound 3.16 µM)?
Answer: 116%

Question: What about the viability, T/C (second compound 0.0316 µM, first compound 10 µM) of the same molecule?
Answer: 111%

Question: And the viability, T/C (second compound 0.1 µM, first compound 0.0316 µM)?
Answer: 114%

Question: And the viability, T/C (second compound 0.1 µM, first compound 0.1 µM)?
Answer: 112%

Question: What about the viability, T/C (second compound 0.1 µM, first compound 0.316 µM) of the same molecule?
Answer: 120%

Question: And the viability, T/C (second compound 0.1 µM, first compound 1 µM)?
Answer: 113%

Question: And the viability, T/C (second compound 0.1 µM, first compound 3.16 µM)?
Answer: 122%

Question: What about the viability, T/C (second compound 0.1 µM, first compound 10 µM) of the same molecule?
Answer: 108%

Question: What about the viability, T/C (second compound 0.316 µM, first compound 0.0316 µM) of the same molecule?
Answer: 113%

Question: And the viability, T/C (second compound 0.316 µM, first compound 0.1 µM)?
Answer: 115%

Question: What about the viability, T/C (second compound 0.316 µM, first compound 0.316 µM) of the same molecule?
Answer: 101%

Question: What about the viability, T/C (second compound 0.316 µM, first compound 1 µM) of the same molecule?
Answer: 117%

Question: And the viability, T/C (second compound 0.316 µM, first compound 3.16 µM)?
Answer: 112%

Question: What about the viability, T/C (second compound 0.316 µM, first compound 10 µM) of the same molecule?
Answer: 77.1%

Question: And the viability, T/C (second compound 1 µM, first compound 0.0316 µM)?
Answer: 105%

Question: What about the viability, T/C (second compound 1 µM, first compound 0.1 µM) of the same molecule?
Answer: 104%

Question: And the viability, T/C (second compound 1 µM, first compound 0.316 µM)?
Answer: 98.2%

Question: What about the viability, T/C (second compound 1 µM, first compound 1 µM) of the same molecule?
Answer: 111%

Question: And the viability, T/C (second compound 1 µM, first compound 3.16 µM)?
Answer: 108%

Question: What about the viability, T/C (second compound 1 µM, first compound 10 µM) of the same molecule?
Answer: 79.2%

Question: What about the viability, T/C (second compound 3.16 µM, first compound 0.0316 µM) of the same molecule?
Answer: 103%

Question: And the viability, T/C (second compound 3.16 µM, first compound 0.1 µM)?
Answer: 84%

Question: What about the viability, T/C (second compound 3.16 µM, first compound 0.316 µM) of the same molecule?
Answer: 84%

Question: What about the viability, T/C (second compound 3.16 µM, first compound 1 µM) of the same molecule?
Answer: 105%

Question: What about the viability, T/C (second compound 3.16 µM, first compound 3.16 µM) of the same molecule?
Answer: 96.5%

Question: And the viability, T/C (second compound 3.16 µM, first compound 10 µM)?
Answer: 70%

Question: And the viability, T/C (second compound 10 µM, first compound 0.0316 µM)?
Answer: 74%

Question: And the viability, T/C (second compound 10 µM, first compound 0.1 µM)?
Answer: 80.4%

Question: And the viability, T/C (second compound 10 µM, first compound 0.316 µM)?
Answer: 72.8%

Question: What about the viability, T/C (second compound 10 µM, first compound 1 µM) of the same molecule?
Answer: 96%

Question: What about the viability, T/C (second compound 10 µM, first compound 3.16 µM) of the same molecule?
Answer: 63.9%

Question: And the viability, T/C (second compound 10 µM, first compound 10 µM)?
Answer: 74.2%

Question: Which viability, T/C (compound 0.0316 µM) does the source give for `CC1(O)CCCC1n1c(=O)c(C(F)F)cc2cnc(NC3CCN(S(C)(=O)=O)CC3)nc21` (stereo unspecified) here?
Answer: 92.6% and 106% and 83.1%

Question: And the viability, T/C (compound 0.1 µM)?
Answer: 100% and 93% and 103%

Question: What about the viability, T/C (compound 0.316 µM) of the same molecule?
Answer: 107% and 99.9% and 99.4%

Question: And the viability, T/C (compound 1 µM)?
Answer: 102% and 97.4% and 98%

Question: What about the viability, T/C (compound 3.16 µM) of the same molecule?
Answer: 111% and 105% (2×)

Question: What about the viability, T/C (compound 10 µM) of the same molecule?
Answer: 75.2% and 57.1% and 77.8%

Question: What about the IC50 (curve of compound) of the same molecule?
Answer: > 10 µM

— PubChem BioAssay AID2060907 (Molecular Pharmacology Branch, DTP, NCI, 2025)
